How the values were obtained:
[1] = cited from earlier work
[2] = Stability test of the NO content of the UV-generated NO-containing buffer solution (chemiluminescence detection); assay type: physicochemical; details: approximately 150 μM NO in buffered tap water pH 7.0 with 1.45 mM NaNO2 and 10 mM Na ascorbate; over a time span of 20 minutes; not statistically significant
Procedure: (§1) The NO-generating unit contained tap water, buffer salts (8 g/l NaCl+0.2 g/l KCl+1.424 g/l Na2HPO4+0.2 g/l KH2PO4, pH=7.0), 1.45 mM NaNO2 and 10 mM Na ascorbate.
(§2) UV radiation of this solution containing nitrite yielded a solution that contained approximately 150 μM NO. The stability of the generated NO and the occurrence of oxidation products were analyzed on the basis of this solution. Moreover, the effect in terms of perfusion and erythema formation was tested within the scope of its use as a foot bath.
This solution first underwent a stability test, that is to say, it was ascertained how the content of NO changes over a time span of 20 minutes. Every two minutes an aliquot of 10 ml of the bathing solution was pipetted into a flask (volume capacity of 175 ml) through which helium gas was flowing (100 ml/min) and which had already been filled with 40 ml of a PBS solution (pH of 7.4). During the entire procedure, the helium-gas mixtures escaping from the flask were conveyed directly into an NO analysis unit (Chemiluminescence Detector—CLD 822 Sr made by Eco Physics of Duernten, Switzerland) which detected and recorded the NO amounts in ppm (parts per million) that were contained in the gas mixture (in this context, also see Opländer et al. 2010—Nitric Oxide—Bio. Ch. 23: 275-283). […]

[3] = Generation of oxidation products (NO2) in the NO-containing solution; assay type: physicochemical; details: same solution
Procedure: as §1, §2
This solution first underwent a stability test, that is to say, it was ascertained how the content of NO changes over a time span of 20 minutes. […] During the entire procedure, the helium-gas mixtures escaping from the flask were conveyed directly into an NO analysis unit (Chemiluminescence Detector—CLD 822 Sr made by Eco Physics of Duernten, Switzerland) which detected and recorded the NO amounts in ppm (parts per million) that were contained in the gas mixture (in this context, also see Opländer et al. 2010—Nitric Oxide—Bio. Ch. 23: 275-283).
Using the solution described above, parallel to the above-mentioned NO detection, the amount of nitrogen dioxide radicals, as the most important oxidation product of NO, was detected during the same measurement. […]

[4] = cited from earlier work; remark: listed apart in the source

## [N]=O [NO, nitric oxide]
[1]
  maximum solubility of NO in aqueous solutions: approximately 2 mM
[2]
  drop of NO content: about 10%
[3]; occurred only after 10 minutes
  concentration of NO2 (oxidation product of NO): ~1.5 ppm
[3]; up to the maximum time value of 20 minutes
  measured NO2 values compared with the initial values: not significantly higher than the initial values
[4]; at 37° C.
  diffusion coefficient of NO relative to that of oxygen or carbon monoxide: approximately 1.4
[4]; calculated on the basis of the diffusion coefficient
  diffusion path that can be achieved in the tissues: 500 μm

— patent US10022527B2, “Immersion device” (BSN medical GmbH, priority 2013, dated 2018)
